Source: US6872850B2, “Small molecule inhibitors of secretion of proteins encoded by ARE-mRNAs” (Message Pharmaceuticals, priority 2001, dated 2005)

How the values were obtained:
3′ UTR of the TNFα gene = assay: cell-based luciferase reporter assay, 5B cell line (luciferase gene with entire 3′ UTR of the TNFα gene); set-up: species or system mouse; details: for Luciferase 5B (% of DMSO control) / Luciferase 5B/3B (% of DMSO control 5B)/(% of DMSO control 3B): 10 μM compound; for Luciferase 5B (% of DMSO control): 1 h, then LPS, 5B cell line; for Luciferase 5B/3B (% of DMSO control 5B)/(% of DMSO control 3B): ratio of 5B to control 3B cell line
Procedure: The candidate compounds were tested in a high-throughput, cell-based luciferase reporter assay. For this assay, a commercially available mouse macrophage Raw 264.7 cell line was stably transfected with a construct containing the CMV promoter operably linked to the luciferase gene which was modified using standard molecular biology techniques to contain the entire 3′ UTR of the TNFα gene. This 3′ UTR is important for the stability and translation of TNFα in cells. To control for effects of candidate compounds that are not specific for TNFα, a control cell line, called “3B,” was generated by stably transfecting the 264.7 cell line with a commercially available construct containing the luciferase gene (without the addition of the heterologous 3′ UTR of the TNFα gene) under the regulation of the CMV promoter.
[…] Then, lipopolysaccharide (LPS) was added to stimulate TNFα secretion. Luciferase activity was measured by determining the luminescence intensity due to the reaction of lucifern, ATP, Mg^2+, and molecular O2 (see, for example, Ausubel et al., supra). The luciferase activity in a cell incubated with a candidate compound was reported as a percentage of the luciferase activity for the corresponding cell incubated with DMSO vehicle only.
After correction for any effect caused by the administration of the DMSO only vehicle control, the effect of a candidate compound on luciferase activity in the 3B control cell line represents the global effect of the compound on any step required for expression or activity of luciferase protein, such as luciferase gene transcription, mRNA processing, mRNA stability, translation, protein stability, or enzymatic activity. […] In this case, the luciferase activity in the 5B cell line treated with the DMSO vehicle control is similar to the luciferase activity in the control 3B cell line treated with the candidate compound. Thus, the response of the 5B cell line (as a percent of the DMSO control) and the ratio of the luciferase activity in the 5B cell line (as a percent of the DMSO control) to the luciferase activity in the control 3B cell line (as a percent of the DMSO control) are similar. In desirable embodiments, the response of the 5B cell line and the 5B/3B ratio differ by less than 50, 40, 30, 20, 10, or 5%.

TNFα = assay: ELISA of TNFα secreted into the media after LPS; type: cell-based; details: for TNFα Secretion (% of DMSO control): 10 μM compound, 1 h, then LPS
Procedure: The ability of candidate compounds to reduce the amount of secreted TNFα was also directly tested using an ELISA assay. […] A standard ELISA analysis was used to measure the amount of TNFα secreted into the media (see, for example, Ausubel et al., supra). The effect of a candidate compound on TNFα secretion in this assay is reported in the following tables as a percentage of the amount of TNFα secreted by a control cell that was administered a DMSO vehicle control only.

SMILES	Luciferase 5B (% of DMSO control) (3′ UTR of the TNFα gene)	Luciferase 5B/3B (% of DMSO control 5B)/(% of DMSO control 3B) (3′ UTR of the TNFα gene)	TNFα Secretion (% of DMSO control) (TNFα)	effect on luciferase activity in the 5B cell line (luciferase assay), in words (3′ UTR of the TNFα gene)	effect on amount of secreted TNFα (direct TNFα secretion assay), in words (TNFα; after LPS stimulation)
CC(C)C[C@H](NC(=O)c1ccccc1)C(=O)N1CCN(C(=O)[C@H](Cc2ccccc2)NC(=O)c2ccc(/C(=N\N=C(N)N)c3ccccc3)cc2)CC1.O=C(O)C(F)(F)F [MES 10250, (Z)-Guanylhydrazone of 1-[(S)-N-(4-benzoylbenzoyl)-2-amino-3-phenylpropanoyl]-4-[(2S)-N-(benzoyl)-2-amino-4-methylpentanoyl]-1,4-piperazine trifluoroacetate]	37 % of DMSO control	49 (% of DMSO control 5B)/(% of D	40 % of DMSO control		
CC(=NN=C(N)N)c1cccc(C(=O)NC(Cc2ccccc2)C(=O)N2CCN(C(=O)C(CC(C)C)NC(=O)c3ccc(C(=NN=C(N)N)c4ccccc4)cc3)CC2)c1 (mixture of isomers) [MES 11405]	39 % of DMSO control	49 (% of DMSO control 5B)/(% of D	55 % of DMSO control	decrease TNFα secretion	decreased the amount of secreted TNFα
O=C(N[C@@H](Cc1ccccc1)C(=O)N1CCN(C(=O)CCC(=O)N2CCN(c3ccccc3)CC2)CC1)c1ccc(C(=O)c2ccccc2)cc1 [MES 10229]	31 % of DMSO control	49 (% of DMSO control 5B)/(% of D	65 % of DMSO control		
CC(C)C[C@H](NC(=O)c1ccccc1)C(=O)N1CCN(C(=O)[C@H](Cc2ccccc2)NC(=O)c2ccc(/C(=N/N=C(N)N)c3ccccc3)cc2)CC1.O=C(O)C(F)(F)F [MES 10249, (E)-Guanylhydrazone of 1-[(S)-N-(4-benzoylbenzoyl)-2-amino-3-phenylpropanoyl]-4-[(2S)-N-(benzoyl)-2-amino-4-methylpentanoyl]-1,4-piperazine trifluoroacetate]	58 % of DMSO control	68 (% of DMSO control 5B)/(% of D	40 % of DMSO control		
CC(C)CC(NC(=O)c1ccc(C(=NNC(=N)N)c2ccccc2)cc1)C(=O)N1CCN(C(=O)C(Cc2ccc(Cl)cc2)NC(=O)c2ccc(C(=NNC(=N)N)c3ccccc3)cc2)CC1 (mixture of isomers) [MES 10192]	37 % of DMSO control	47 (% of DMSO control 5B)/(% of DMSO control 3B)	17 % of DMSO control		
C/C(=N\NC(=N)N)c1cccc(C(=O)N[C@@H](CC(C)C)C(=O)N2CCN(C(=O)[C@H](Cc3ccccc3)NCc3ccc(I)cc3)CC2)c1 [MES 10242]	53 % of DMSO control	50 (% of DMSO control 5B)/(% of D	67 % of DMSO control		
COc1ccc(CC(NC(=O)c2ccc(C(=NNC(=N)N)c3ccccc3)cc2)C(=O)N2CCN(C(=O)C(CC(C)C)NC(=O)c3ccc(C(=NNC(=N)N)c4ccccc4)cc3)CC2)cc1 (mixture of isomers) [MES 10237]	20 % of DMSO control	27 (% of DMSO control 5B)/(% of DMSO control 3B)	39 % of DMSO control		
CC(C)CC(NC(=O)c1ccc(C(=NNC(=N)N)c2ccccc2)cc1)C(=O)N1CCN(C(=O)C(Cc2ccc3ccccc3c2)NC(=O)c2ccc(C(=NNC(=N)N)c3ccccc3)cc2)CC1 (mixture of isomers) [MES 10195]	36 % of DMSO control	82 (% of DMSO control 5B)/(% of DMSO control 3B)	33 % of DMSO control		
